Laboratory results reported in patent US20200407398A1, “Short Proline-Rich Lipopeptide Potentiates Minocycline and Rifampicin Against Multidrug-and Extensively Drug-Resistant Pseudomonas Aeruginosa” (priority 2018, published 2020).
Peptide text beside a SMILES is read from it. * marks the point of attachment. Lauroyl = CCCCCCCCCCCC(=O)*

Columns and labels:
Format in all cases: cell-based
[1] = tested on: P. aeruginosa wild-type PAO1
Summary of the method: (§1)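 CLSI broth microdilution with 2-fold serial dilutions in Mueller-Hinton broth, inoculum 5×10^5 CFU/mL, incubated 18 hours at 37° C. MIC taken as lowest concentration with no visible turbidity, confirmed by absorbance at 590 nm.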

[2] = tested on: P. aeruginosa CANWARD-2011 96846 (gentamicin-, tobramycin-resistant)
Summary of the method: as §1

[3] = tested on: E. coli CAN-ICU 61714 (gentamicin-resistant)
Summary of the method: as §1

[4] = tested on: P. aeruginosa CAN-ICU 62308 (gentamicin-resistant)
Summary of the method: as §1

pig erythrocytes = tested on: pig erythrocytes
Summary of the method: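 Washed pig erythrocytes in PBS were mixed with 2-fold serial dilutions of peptide and incubated for 1 h at 37° C. Released hemoglobin in the supernatant was read at 570 nm, with PBS and 0.1% Triton X-100 as controls. MHC was the minimum concentration giving 5% hemolysis.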

CCCCCCCCCCCC(=O)N1CCC[C@H]1C(=O)N[C@@H](CCCNC(=N)N)C(=O)N1CCC[C@H]1C(=O)N[C@@H](CCCNC(=N)N)C(=O)N1CCC[C@H]1C(=O)N[C@@H](CCCNC(=N)N)C(=O)N1CCC[C@H]1C(N)=O [Compound C12-PRP, CH3(CH2)10CO-PRPRPRP-NH2] (Lauroyl-PRPRPRP-NH2)
MIC [1]: 128 µg/mL | MIC [2]: >128 µg/mL | MIC [3]: >128 µg/mL | MIC [4]: >128 µg/mL | MHC (minimum concentration that resulted in 5% red blood cell hemolysis) (pig erythrocytes): > 512 µg/mL | hemolysis (pig erythrocytes; red cells of porcine, 512 μg/mL): 4.6±0.2%
